SMILES strings stand for the structures.

Assay [1] addresses T1, S5AR enzyme derived from LNCaP cells (Homo sapiens, UniProt P18405).
T1 sequence (P18405 1-259): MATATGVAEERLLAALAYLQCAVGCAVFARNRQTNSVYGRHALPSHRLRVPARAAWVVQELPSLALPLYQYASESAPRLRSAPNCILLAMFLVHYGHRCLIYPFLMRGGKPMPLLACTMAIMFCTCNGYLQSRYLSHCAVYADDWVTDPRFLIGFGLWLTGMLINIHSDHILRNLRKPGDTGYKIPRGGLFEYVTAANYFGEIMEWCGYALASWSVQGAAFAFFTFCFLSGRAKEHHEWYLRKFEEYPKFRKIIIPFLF
Kind of assay: S5AR inhibition assay (DHT production quantified by LC-MS). The assay is classed as biochemical. Particulars: read-out: S5AR percentage inhibition.

For assay [2], the target named is T1, S5AR enzyme derived from LNCaP cells. Particulars: taken from previous publication; read-out: S5AR Inhibitory Activity (IC50); cited from earlier work.

For orientation: inhibition means the percentage by which the read-out fell short of the control. In the case of `CC1=C(CC[C@@H](C)CC(=O)O)[C@@]2(C)CCCC(C)(C)C2CC1=O` (stereo partly drawn) [Compound 2, 7-Oxo-8-labden-15-oic acid], the inhibition at 300 µM in assay [1] (final concentration of 300 µM) turned out to be 41.4%.

Regarding `COc1cc(/C=C/C(=O)CC(=O)/C=C/c2ccc(O)c(OC)c2)ccc1O` [Curcumin], the inhibition at 50 µg/mL in assay [1] was 92.73 ± 0.14%.

Broadly, the IC50 is the midpoint of a concentration-inhibition curve. In the case of `CC(C)(C)NC(=O)[C@H]1CC[C@H]2[C@@H]3CC[C@H]4NC(=O)C=C[C@]4(C)[C@H]3CC[C@]12C` [Finasteride], the IC50 in assay [2] was 760 ± 30 nM.
